In patent publication US7348342B2, “Heterocyclic compounds process for their preparation and pharmaceutical compositions containing them and their use in medicine” (Cadila Healthcare Limited, priority 2002, dated 2008):

Tested on: carrageenan foot pad edema
Assay: carrageenan foot pad edema test
Format: in vivo
Conditions: Wistar rats, dose 30 mg/kg by oral gavage 1 h before carrageenan; for % Inhibition of paw edema 1 hour: 1 hour after carrageenan injection; for % Inhibition of paw edema 3 hour: 3 hour after carrageenan injection
Source text: The compounds of the present invention have been tested for their biological activities by carrageenan foot pad edema test in male as well as female Wistar rats according to standard protocol described in literature (Winter et. al, Proc. Soc. Exp. Biol. Med., 111, 544, (1962); Otterness and Bliven, Laboratory Models for Testing NSAIDS, in Non-Steroidal Anti-inflammatory Drugs, (J. Lombardino, ed. 1985)). The protocol followed was as described below:
Wistar rats obtained from the Experimental Animal Facility of Zydus Research. Centre. Animals were housed in an environmentally controlled rooms with food and water available ad-libitum. All the experimental protocols were approved by the Institutional Animal Ethics Committee. Animals were divided into different groups, each group comprising of five-six animals. After an overnight fast, animals of the control group received vehicle only by oral gavage whereas animals of the other groups received different doses of the test substance(s). Each rat received same volume of the formulation i.e. 2 ml/kg on body weight basis. One hour after administration of the vehicle or test substance, all the animals received sub-planter injection of carrageenan (1% w/v in saline). Paw volume was measured at 0, 1, 3 and 5 hour after carrageenan injection. Anti-inflammatory activity, expressed as % Inhibition in paw swelling was calculated by measuring change in paw volume at different time intervals after carrageenan injection vs corresponding 0 hr values using the following formula.
[formula] Where • PVC=Average change in Paw volume of control animals • PVT=Average change in Paw volume of treated animals.

Compound | % Inhibition of paw edema 1 hour | % Inhibition of paw edema 3 hour
3-(4-Methoxyphenyl)-5-methyl-4-(4-methylsulfoximinylphenyl)-isoxazole [Compound 154] | 46% | 47%
3-(4-Methylphenyl)-4-(3-fluoro-4-methylsulfoximinylphenyl-5H-furan-2-one [Compound 112] | 57% | 40%
5-Chloro-3-(4-methylsulfoximinylphenyl)-[2,3′]bipyridinyl [Compound 97] | 13% | 36%
5-methyl-4-(4-methylsulfoximinylphenyl)-3-phenyl-isoxazole [Compound 153] | 42% | 43%
Cc1ccc(-c2cc(C(F)(F)F)nn2-c2ccc(S(N)(=O)=O)cc2)cc1 [Celecoxib, reference compound] | 33% | 26%
